Measured values from US9315490B2, “2,5-substituted pyrimidines” (Grünenthal GmbH, priority 2014, dated 2016).

What follows are molecules tested against T1, human PDE4B1 (Homo sapiens, UniProt Q07343) (assay: cAMP HTRF assay to determine the activity of hPDE4B1). Conditions: inhibition of PDE4B at a test concentration of 1 μM.
T1 construct: host or cells: Sf9 cells
Assay type: biochemical
In short: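 […], using HTRF quantitation of residual cAMP after 1 mM IBMX stop and 60 min detection. Enzyme was Sf9-expressed human PDE4B1 incubated 30 min at room temperature with 40 nM final cAMP at pH 7.8.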

T1 sequence (Q07343 whole entry): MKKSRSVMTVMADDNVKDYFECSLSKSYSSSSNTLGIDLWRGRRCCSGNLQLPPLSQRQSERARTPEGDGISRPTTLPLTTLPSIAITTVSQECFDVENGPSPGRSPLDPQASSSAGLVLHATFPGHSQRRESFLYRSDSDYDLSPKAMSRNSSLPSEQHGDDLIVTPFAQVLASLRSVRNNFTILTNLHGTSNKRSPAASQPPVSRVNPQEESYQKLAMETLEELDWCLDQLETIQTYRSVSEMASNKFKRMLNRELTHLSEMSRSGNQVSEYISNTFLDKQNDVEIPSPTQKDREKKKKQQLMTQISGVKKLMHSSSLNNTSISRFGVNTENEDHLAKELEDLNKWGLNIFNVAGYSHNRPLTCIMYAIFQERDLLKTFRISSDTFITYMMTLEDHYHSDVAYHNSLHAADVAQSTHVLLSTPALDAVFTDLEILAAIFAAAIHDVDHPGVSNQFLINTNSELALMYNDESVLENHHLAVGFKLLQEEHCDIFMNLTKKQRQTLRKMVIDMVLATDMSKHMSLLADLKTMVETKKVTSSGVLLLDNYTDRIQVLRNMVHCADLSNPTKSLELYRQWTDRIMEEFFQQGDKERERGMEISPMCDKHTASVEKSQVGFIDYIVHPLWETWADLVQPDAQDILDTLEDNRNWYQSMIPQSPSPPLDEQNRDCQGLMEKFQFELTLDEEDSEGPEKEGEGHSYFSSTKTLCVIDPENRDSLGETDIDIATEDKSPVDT

Question: Which inhibition at 1 µM does the source give for `C[C@@H]1COCCN1C(=O)c1ccc2c([S+](C)[O-])cn(-c3ncc(-c4ccccc4F)cn3)c2c1` (stereo partly drawn) [Example 179, (1-(5-(2-Fluorophenyl)pyrimidin-2-yl)-3-(methylsulfinyl)-1H-indol-6-yl)((R)-3-methylmorpholino)methanone] here?
Answer: The inhibition at 1 µM was 90%.

Question: How did the inhibition at 1 µM turn out when `Cc1cccc(-c2cnc(-n3cc([S+](C)[O-])c4ccc(C(=O)N5CCOCC5)cc43)nc2)n1` (stereo not drawn) [Example 180, (1-(5-(6-Methylpyridin-2-yl)pyrimidin-2-yl)-3-(methylsulfinyl)-1H-indol-6-yl)(morpholino)methanone] was run?
Answer: The inhibition at 1 µM was 99%.

Question: `C[S+]([O-])c1cn(-c2ncc(-c3cc(C#N)ccn3)cn2)c2cc(C(=O)N3CCOCC3)ccc12` (stereo not drawn) [Example 181, 2-(2-(3-(Methylsulfinyl)-6-(morpholine-4-carbonyl)-1H-indol-1-yl)pyrimidin-5-yl)isonicotinonitrile] was tested. Which inhibition at 1 µM did it give?
Answer: Its inhibition at 1 µM is 96%.

Question: For `C[S+]([O-])c1cn(-c2ncc(-c3cc(F)ccn3)cn2)c2cc(C(=O)N3CCOCC3)ccc12` (stereo not drawn) [Example 182, (1-(5-(4-Fluoropyridin-2-yl)pyrimidin-2-yl)-3-(methylsulfinyl)-1H-indol-6-yl)(morpholino)methanone], which inhibition at 1 µM is on record?
Answer: Its inhibition at 1 µM is 95%.

Question: `C[S+]([O-])c1cn(-c2ncc(-c3cccc(C#N)n3)cn2)c2cc(C(=O)N3CCOCC3)ccc12` (stereo not drawn) [Example 183, 6-(2-(3-(Methylsulfinyl)-6-(morpholine-4-carbonyl)-1H-indol-1-yl)pyrimidin-5-yl)picolinonitrile] was tested. Which inhibition at 1 µM did it give?
Answer: Its inhibition at 1 µM is 60%.

Question: `C[S+]([O-])c1cn(-c2ncc(-c3cccc(F)n3)cn2)c2cc(C(=O)N3CCOCC3)ccc12` (stereo not drawn) [Example 185, (1-(5-(6-Fluoropyridin-2-yl)pyrimidin-2-yl)-3-(methylsulfinyl)-1H-indol-6-yl)(morpholino)methanone] was tested. Which inhibition at 1 µM did it give?
Answer: Its inhibition at 1 µM is 97%.

Question: How did the inhibition at 1 µM turn out when `C[S+]([O-])c1cn(-c2ncc(-c3ccccc3)cn2)c2cc(C(=O)N3CC[C@@H](N)C3)ccc12` (stereo partly drawn) [Example 223, ((R)-3-Aminopyrrolidin-1-yl)(3-(methylsulfinyl)-1-(5-phenylpyrimidin-2-yl)-1H-indol-6-yl)methanone] was run?
Answer: Its inhibition at 1 µM is 89%.

Question: `Cc1cccc(-c2cnc(-n3cc([S+](C)[O-])c4ccc(C(=O)N5CC[C@@H](N)C5)cc43)nc2)c1` (stereo partly drawn) [Example 224, ((R)-3-Aminopyrrolidin-1-yl)(3-(methylsulfinyl)-1-(5-(m-tolyl)pyrimidin-2-yl)-1H-indol-6-yl)methanone] was tested. Which inhibition at 1 µM did it give?
Answer: The inhibition at 1 µM was 102%.

Question: `C[S+]([O-])c1cn(-c2ncc(-c3cc(C#N)ccc3F)cn2)c2cc(C(=O)N3CC[C@@H](N)C3)ccc12` (stereo partly drawn) [Example 225, 3-(2-(6-((R)-3-Aminopyrrolidine-1-carbonyl)-3-(methylsulfinyl)-1H-indol-1-yl)pyrimidin-5-yl)-4-fluorobenzonitrile] was tested. Which inhibition at 1 µM did it give?
Answer: Its inhibition at 1 µM is 92%.

Question: How did the inhibition at 1 µM turn out when `COc1ccc(F)c(-c2cnc(-n3cc([S+](C)[O-])c4ccc(C(=O)N5CC[C@@H](N)C5)cc43)nc2)c1` (stereo partly drawn) [Example 226, ((R)-3-Aminopyrrolidin-1-yl)(1-(5-(2-fluoro-5-methoxyphenyl)pyrimidin-2-yl)-3-(methylsulfinyl)-1H-indol-6-yl)methanone] was run?
Answer: The inhibition at 1 µM was 99%.

Question: How did the inhibition at 1 µM turn out when `Cc1ccc(F)c(-c2cnc(-n3cc([S+](C)[O-])c4ccc(C(=O)N5CC[C@@H](N)C5)cc43)nc2)c1` (stereo partly drawn) [Example 227, ((R)-3-Aminopyrrolidin-1-yl)(1-(5-(2-fluoro-5-methylphenyl)pyrimidin-2-yl)-3-(methylsulfinyl)-1H-indol-6-yl)methanone] was run?
Answer: Its inhibition at 1 µM is 108%.

Question: `CS(=O)(=O)c1cn(-c2ncc(-c3ccccc3)cn2)c2cc(C(=O)N3CC[C@@H](N)C3)ccc12` [Example 228, (R)-(3-Aminopyrrolidin-1-yl)(3-(methylsulfonyl)-1-(5-phenylpyrimidin-2-yl)-1H-indol-6-yl)methanone] was tested. Which inhibition at 1 µM did it give?
Answer: The inhibition at 1 µM was 104%.

Question: For `CS(=O)(=O)c1cn(-c2ncc(-c3cc(C#N)ccc3F)cn2)c2cc(C(=O)N3CC[C@@H](N)C3)ccc12` [Example 229, (R)-3-(2-(6-(3-Aminopyrrolidine-1-carbonyl)-3-(methylsulfonyl)-1H-indol-1-yl)pyrimidin-5-yl)-4-fluorobenzonitrile], which inhibition at 1 µM is on record?
Answer: The inhibition at 1 µM was 106%.

Question: Which inhibition at 1 µM does the source give for `COc1ccc(F)c(-c2cnc(-n3cc(S(C)(=O)=O)c4ccc(C(=O)N5CC[C@@H](N)C5)cc43)nc2)c1` [Example 230, (R)-(3-Aminopyrrolidin-1-yl)(1-(5-(2-fluoro-5-methoxyphenyl)pyrimidin-2-yl)-3-(methylsulfonyl)-1H-indol-6-yl)methanone] here?
Answer: Its inhibition at 1 µM is 110%.

Question: For `Cc1ccc(F)c(-c2cnc(-n3cc(S(C)(=O)=O)c4ccc(C(=O)N5CC[C@@H](N)C5)cc43)nc2)c1` [Example 231, (R)-(3-Aminopyrrolidin-1-yl)(1-(5-(2-fluoro-5-methylphenyl)pyrimidin-2-yl)-3-(methylsulfonyl)-1H-indol-6-yl)methanone], which inhibition at 1 µM is on record?
Answer: Its inhibition at 1 µM is 121%.

Question: How did the inhibition at 1 µM turn out when `C[S+]([O-])c1cn(-c2ncc(-c3ccccc3)cn2)c2cc(C(=O)N3C[C@H]4C[C@@H]3CN4)ccc12` (stereo partly drawn) [Example 232, (1R,4R)-2,5-Diazabicyclo[2.2.1]heptan-2-yl(3-(methylsulfinyl)-1-(5-phenylpyrimidin-2-yl)-1H-indol-6-yl)methanone] was run?
Answer: The inhibition at 1 µM was 57%.

Question: For `C[S+]([O-])c1cn(-c2ncc(-c3ccccc3)cn2)c2cc(C(=O)N3C[C@@H]4C[C@H]3CN4)ccc12` (stereo partly drawn) [Example 233, (1S,4S)-2,5-Diazabicyclo[2.2.1]heptan-2-yl(3-(methylsulfinyl)-1-(5-phenylpyrimidin-2-yl)-1H-indol-6-yl)methanone], which inhibition at 1 µM is on record?
Answer: Its inhibition at 1 µM is 103%.

Question: With `C[S+]([O-])c1cn(-c2ncc(-c3ccccc3)cn2)c2cc(C(=O)N3C[C@H]4C[C@@H]3CO4)ccc12` (stereo partly drawn) [Example 234, (1R,4R)-2-Oxa-5-azabicyclo[2.2.1]heptan-5-yl(3-(methylsulfinyl)-1-(5-phenylpyrimidin-2-yl)-1H-indol-6-yl)methanone] as the molecule, how does the inhibition at 1 µM read?
Answer: The inhibition at 1 µM was 91%.

Question: For `CS(=O)(=O)c1cn(-c2ncc(-c3ccccc3)cn2)c2cc(C(=O)N3C[C@@H]4C[C@H]3CN4)ccc12` [Example 236, (1S,4S)-2,5-Diazabicyclo[2.2.1]heptan-2-yl(3-(methylsulfonyl)-1-(5-phenylpyrimidin-2-yl)-1H-indol-6-yl)methanone], which inhibition at 1 µM is on record?
Answer: Its inhibition at 1 µM is 85%.

Question: For `CS(=O)(=O)c1cn(-c2ncc(-c3ccccc3)cn2)c2cc(C(=O)N3C[C@H]4C[C@@H]3CO4)ccc12` [Example 237, (1R,4R)-2-Oxa-5-azabicyclo[2.2.1]heptan-5-yl(3-(methylsulfonyl)-1-(5-phenylpyrimidin-2-yl)-1H-indol-6-yl)methanone], which inhibition at 1 µM is on record?
Answer: The inhibition at 1 µM was 36%.

Question: For `CS(=O)(=O)c1cn(-c2ncc(-c3ccccc3F)cn2)c2cc(C(=O)N3C[C@H]4C[C@@H]3CO4)ccc12` [Example 238, (1R,4R)-2-Oxa-5-azabicyclo[2.2.1]heptan-5-yl(1-(5-(2-fluorophenyl)pyrimidin-2-yl)-3-(methylsulfonyl)-1H-indol-6-yl)methanone], which inhibition at 1 µM is on record?
Answer: The inhibition at 1 µM was 32%.

Question: Which inhibition at 1 µM does the source give for `CS(=O)(=O)c1cn(-c2ncc(-c3ccccc3F)cn2)c2cc(C(=O)N3C[C@@H]4C[C@H]3CN4)ccc12` [Example 239, (1S,4S)-2,5-Diazabicyclo[2.2.1]heptan-2-yl(1-(5-(2-fluorophenyl)pyrimidin-2-yl)-3-(methylsulfonyl)-1H-indol-6-yl)methanone] here?
Answer: The inhibition at 1 µM was 78%.

Question: For `C[S+]([O-])c1cn(-c2ncc(-c3ccccc3F)cn2)c2cc(C(=O)N3C[C@@H]4C[C@H]3CN4)ccc12` (stereo partly drawn) [Example 240, (1S,4S)-2,5-Diazabicyclo[2.2.1]heptan-2-yl(1-(5-(2-fluorophenyl)pyrimidin-2-yl)-3-(methylsulfinyl)-1H-indol-6-yl)methanone], which inhibition at 1 µM is on record?
Answer: The inhibition at 1 µM was 101%.

Question: How did the inhibition at 1 µM turn out when `C[S+]([O-])c1cn(-c2ncc(-c3ccccc3F)cn2)c2cc(C(=O)N3C[C@@H]4CCN[C@@H]4C3)ccc12` (stereo partly drawn) [Example 242, (1-(5-(2-Fluorophenyl)pyrimidin-2-yl)-3-(methylsulfinyl)-1H-indol-6-yl)((3aS,6aS)-hexahydropyrrolo[3,4-b]pyrrol-5(1H)-yl)methanone] was run?
Answer: The inhibition at 1 µM was 66%.

Question: For `C[S+]([O-])c1cn(-c2ncc(-c3ccccc3F)cn2)c2cc(C(=O)N3C[C@H]4C[C@@H]3CO4)ccc12` (stereo partly drawn) [Example 243, (1R,4R)-2-Oxa-5-azabicyclo[2.2.1]heptan-5-yl(1-(5-(2-fluorophenyl)pyrimidin-2-yl)-3-(methylsulfinyl)-1H-indol-6-yl)methanone], which inhibition at 1 µM is on record?
Answer: The inhibition at 1 µM was 64%.

Question: For `C[S+]([O-])c1cn(-c2ncc(-c3ccccn3)cn2)c2cc(C(=O)N3C[C@@H]4C[C@H]3CN4)ccc12` (stereo partly drawn) [Example 244, (1S,4S)-2,5-Diazabicyclo[2.2.1]heptan-2-yl(3-(methylsulfinyl)-1-(5-(pyridin-2-yl)pyrimidin-2-yl)-1H-indol-6-yl)methanone], which inhibition at 1 µM is on record?
Answer: The inhibition at 1 µM was 102%.

Question: `CN(CC1(O)CC1)C(=O)c1ccc2c([S+](C)[O-])cn(-c3ncc(-c4ccccc4F)cn3)c2c1` (stereo not drawn) [Example 250, 1-(5-(2-Fluorophenyl)pyrimidin-2-yl)-N-((1-hydroxycyclopropyl)methyl)-N-methyl-3-(methylsulfinyl)-1H-indole-6-carboxamide] was tested. Which inhibition at 1 µM did it give?
Answer: The inhibition at 1 µM was 30%.

Question: Which inhibition at 1 µM does the source give for `C[C@H](O)CN(C)C(=O)c1ccc2c([S+](C)[O-])cn(-c3ncc(-c4ccccc4F)cn3)c2c1` (stereo partly drawn) [Example 251, 1-(5-(2-Fluorophenyl)pyrimidin-2-yl)-N—((S)-2-hydroxypropyl)-N-methyl-3-(methylsulfinyl)-1H-indole-6-carboxamide] here?
Answer: The inhibition at 1 µM was 45%.

Question: For `C[S+]([O-])c1cn(-c2ncc(-c3ccccc3F)cn2)c2cc(C(=O)N3CCC3)ccc12` (stereo not drawn) [Example 355, Azetidin-1-yl(1-(5-(2-fluorophenyl)pyrimidin-2-yl)-3-(methylsulfinyl)-1H-indol-6-yl)methanone], which inhibition at 1 µM is on record?
Answer: The inhibition at 1 µM was 77%.

Question: Which inhibition at 1 µM does the source give for `CCN(C)C(=O)c1ccc2c([S+](C)[O-])cn(-c3ncc(-c4ccccc4F)cn3)c2c1` (stereo not drawn) [Example 356, N-Ethyl-1-(5-(2-fluorophenyl)pyrimidin-2-yl)-N-methyl-3-(methylsulfinyl)-1H-indole-6-carboxamide] here?
Answer: The inhibition at 1 µM was 96%.
